Laboratory results as given in ChEMBL document CHEMBL5154729, “A fragment integrational approach to GPCR inhibition: Identification of a high affinity small molecule CXCR4 antagonist” (Eur J Med Chem, 2022).
The source made the active and inactive calls. No cut-off for these calls is given here.

Experiments:
[1] = molecular target: T1, C-X-C chemokine receptor type 4 (Homo sapiens, UniProt P61073); assay: Antagonist activity at CXCR4 receptor in human SUP-T1 assessed as inhibition of SDF-1alpha-induced CXCR4 internalization at 0.1 to 10 uM and measured by flow cytometry analysis; assay type: functional, cell-based; conditions: filed as antagonist, dose 0.1-10 µM, DDE = dose-dependent effect
[2] = molecular target: T1, C-X-C chemokine receptor type 4; assay: Antagonist activity at CXCR4 receptor in SDF-1alpha-stimulated human SUP-T1 cells measured by calcium mobilization assay; assay type: functional, cell-based
[3] = tested on: C-X-C chemokine receptor type 4 (Homo sapiens), P61073 [E288D]; assay: Binding affinity to CXCR4 E288D mutant (unknown origin) expressed in CHO cells at 100 nM measured by 12G5 competitive binding method; assay type: cell-based; conditions: filed as antagonist
[4] = molecular target: T1, C-X-C chemokine receptor type 4; assay: Antagonist activity at CXCR4 receptor in CHO cells expressing EGFP-CXCR4 assessed as inhibition of SDF-1alpha-induced CXCR4 internalization at 1 to 100 nM and measured by confocal microscopy; assay type: functional, cell-based; conditions: filed as antagonist, dose 1-100 nM
[5] = tested on: CCRF-CEM; assay: Cytotoxicity against human CEM-GFP cells at 0.32 to 25000 nM measured by CellTiter-Blue cell viability assay; assay type: toxicity, cell-based; conditions: 25 µM, dose 0.32-25000 nM
[6] = molecular target: T1, C-X-C chemokine receptor type 4; assay: Antagonist activity at CXCR4 receptor expressed in CHO cells transfected with NFAT-RE-luc2P assessed as reduction in SDF-1alpha-mediated calcium signaling pathway at 10 uM and measured by luciferase reporter gene assay; assay type: functional, cell-based; conditions: filed as antagonist
[7] = molecular target: T1, C-X-C chemokine receptor type 4; assay: Antagonist activity at CXCR4 receptor expressed in CHO cells transfected with […] assessed as reduction in SDF-1alpha-mediated RhoA activation at 10 uM and measured by luciferase reporter gene assay; assay type: functional, cell-based; conditions: filed as antagonist
[8] = tested on: Human immunodeficiency virus 1; assay: Antiviral activity against HIV1 NL4-3 virus infected in human CEM-GFP cells assessed as reduction in CXCR4-mediated HIV-1 infection at 0.1 to 10000 nM measured by fluorescence assay; assay type: functional, organism-based; conditions: dose 0.1-10000 nM
[9] = molecular target: T1, C-X-C chemokine receptor type 4; assay: Binding affinity to CXCR4 (unknown origin) expressed in CHO cells measured by 12G5 competitive binding method; assay type: cell-based
[10] = molecular target: T1, C-X-C chemokine receptor type 4; assay: Antagonist activity at CXCR4 receptor expressed in CHO cells transfected with CRE-luc2P assessed as reduction in forskolin-stimulated SDF-1alpha-mediated inhibition of cAMP production at 10 uM and measured by luciferase reporter gene assay; assay type: functional, cell-based; conditions: filed as antagonist
[11] = tested on: CHO; assay: Binding affinity to CXCR4 D262E mutant (unknown origin) expressed in CHO cells at 100 nM measured by 12G5 competitive binding method; assay type: cell-based; conditions: Homo sapiens, filed as antagonist
[12] = molecular target: T1, C-X-C chemokine receptor type 4; assay: Antagonist activity at CXCR4 receptor expressed in CHO cells transfected with SRE-luc2P assessed as reduction in SDF-1alpha-mediated ERK/MAPK activation at 10 uM and measured by luciferase reporter gene assay; assay type: functional, cell-based; conditions: filed as antagonist
[13] = tested on: C-X-C chemokine receptor type 4 (Homo sapiens), P61073 [E288A]; assay: Binding affinity to CXCR4 E288A mutant (unknown origin) expressed in CHO cells at 100 nM measured by 12G5 competitive binding method; assay type: cell-based; conditions: filed as antagonist
[14] = tested on: SUP-T1; assay: Cytotoxicity against human SUP-T1 cells at 10 to 50 uM after 72 hrs CellTiter-96 assay; assay type: toxicity, cell-based; conditions: sup-t1, 72 h, dose 10-50 µM
[15] = tested on: C-X-C chemokine receptor type 4 (Homo sapiens), P61073 [D262A]; assay: Binding affinity to CXCR4 D262A mutant (unknown origin) expressed in CHO cells at 100 nM measured by 12G5 competitive binding method; assay type: cell-based; conditions: filed as antagonist
[16] = molecular target: T1, C-X-C chemokine receptor type 4; assay: Binding affinity to CXCR4 (unknown origin) expressed in CHO cells measured by Scatchard plot analysis; assay type: cell-based

T1 sequence (P61073 whole entry): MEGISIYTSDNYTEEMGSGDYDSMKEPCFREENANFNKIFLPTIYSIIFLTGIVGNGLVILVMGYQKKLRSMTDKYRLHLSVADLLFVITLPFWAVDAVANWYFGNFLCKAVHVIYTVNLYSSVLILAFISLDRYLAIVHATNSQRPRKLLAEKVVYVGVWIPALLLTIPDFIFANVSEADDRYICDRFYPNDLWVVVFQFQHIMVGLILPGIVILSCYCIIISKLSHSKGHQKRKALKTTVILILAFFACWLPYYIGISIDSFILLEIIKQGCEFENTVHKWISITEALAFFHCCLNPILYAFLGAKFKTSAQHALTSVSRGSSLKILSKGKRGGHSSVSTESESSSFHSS
C-X-C chemokine receptor type 4 (Homo sapiens), P61073 [E288D], sequence (P61073 whole entry E288D): as the sequence (P61073 whole entry) above, with E288D counted along it
C-X-C chemokine receptor type 4 (Homo sapiens), P61073 [E288A], sequence (P61073 whole entry E288A): as the sequence (P61073 whole entry) above, with E288A counted along it
C-X-C chemokine receptor type 4 (Homo sapiens), P61073 [D262A], sequence (P61073 whole entry D262A): as the sequence (P61073 whole entry) above, with D262A counted along it

| inhibition [1] | IC50 [2] [nM] | Activity [3] [%] | inhibition [4] | Activity [6] | Activity [7] | IC50 [9] [nM] | Activity [10] | Activity [12] | Activity [13] [%] | Activity [15] [%] | Kd [16] [nM] | SMILES | Activity [5] | Activity [8] | Activity [11] [%] | Activity [14] |
| --- | --- | --- | --- | --- | --- | --- | --- | --- | --- | --- | --- | --- | --- | --- | --- | --- |
| Dde |  |  |  |  |  |  |  |  |  |  |  | c1cc(CN2CCCNCCNCCCNCC2)ccc1CN1CCCNCCNCCCNCC1 |  |  |  |  |
| Dde | 1.6 | > 60 | Active | Active | Active | 12 | Active | Active | > 90 | > 40 |  | N=C(N)NCCC[C@H](NCc1ccccn1)C(=O)NCc1ccc(CNCCCNC2CCCCC2)cc1 | Non-Toxic | Active | > 60 | Non-Toxic |
|  |  |  |  |  |  |  |  |  |  |  | 33 | N/C(=N\C(=O)CCCCCNC(=S)Nc1ccc2c(c1)C(=O)OC21c2ccc(O)cc2Oc2cc(O)ccc21)NCCC[C@H](NCc1ccccn1)C(=O)NCc1ccc(CNCCCNC2CCCCC2)cc1 |  |  |  |  |
